{"source": "patent US10385019B2", "about": "“Inhibitors of EGFR and methods of use thereof” (Dana-Farber Cancer Institute, Inc., priority 2015, dated 2019)"}
{"biological_target": "EGFR T790M/L858R Ba/F3 cell line (Homo sapiens, UniProt P00533, T790M/L858R, cells depend on it)", "sequence (P00533 whole entry T790M/L858R)": "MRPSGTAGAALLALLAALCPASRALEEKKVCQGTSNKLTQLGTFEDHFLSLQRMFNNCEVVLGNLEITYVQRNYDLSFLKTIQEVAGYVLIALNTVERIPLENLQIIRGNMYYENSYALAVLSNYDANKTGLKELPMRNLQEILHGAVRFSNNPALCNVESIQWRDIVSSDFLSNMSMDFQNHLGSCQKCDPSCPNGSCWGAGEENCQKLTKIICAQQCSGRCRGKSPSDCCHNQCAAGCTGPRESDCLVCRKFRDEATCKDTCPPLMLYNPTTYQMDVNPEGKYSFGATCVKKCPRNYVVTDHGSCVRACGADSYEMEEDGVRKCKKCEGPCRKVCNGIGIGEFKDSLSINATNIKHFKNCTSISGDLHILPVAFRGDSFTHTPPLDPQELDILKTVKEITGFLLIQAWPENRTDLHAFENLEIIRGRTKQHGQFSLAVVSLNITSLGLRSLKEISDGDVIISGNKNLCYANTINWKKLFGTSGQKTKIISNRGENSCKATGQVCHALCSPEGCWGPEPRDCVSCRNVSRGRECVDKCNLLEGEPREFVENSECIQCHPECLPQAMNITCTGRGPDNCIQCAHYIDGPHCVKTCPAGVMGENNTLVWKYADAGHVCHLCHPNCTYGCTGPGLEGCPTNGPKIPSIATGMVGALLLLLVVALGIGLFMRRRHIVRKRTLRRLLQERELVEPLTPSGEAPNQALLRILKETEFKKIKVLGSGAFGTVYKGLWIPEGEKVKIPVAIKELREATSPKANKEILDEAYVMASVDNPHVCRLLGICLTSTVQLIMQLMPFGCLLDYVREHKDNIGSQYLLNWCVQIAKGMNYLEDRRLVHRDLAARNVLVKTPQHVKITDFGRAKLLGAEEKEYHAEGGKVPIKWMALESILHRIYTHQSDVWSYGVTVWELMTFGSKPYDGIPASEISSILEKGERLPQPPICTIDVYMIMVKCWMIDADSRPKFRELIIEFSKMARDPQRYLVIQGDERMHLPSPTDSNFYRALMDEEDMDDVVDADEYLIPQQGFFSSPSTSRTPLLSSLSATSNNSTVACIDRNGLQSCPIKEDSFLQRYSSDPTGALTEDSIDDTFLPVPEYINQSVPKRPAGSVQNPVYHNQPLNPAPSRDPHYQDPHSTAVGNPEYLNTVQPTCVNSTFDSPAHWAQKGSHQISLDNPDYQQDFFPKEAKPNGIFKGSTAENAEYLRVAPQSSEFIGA", "assay": "Ba/F3 cell proliferation model", "type": "cell-based, murine", "conditions": "combined with cetuximab (% cetuximab, 1.0 μM drug concentration with 1.0 μg/mL cetuximab)", "excerpt": "The selectivity between wild-type EGFR and EGFR containing one or more mutations as described herein can also be measured using cellular proliferation assays where cell proliferation is dependent on kinase activity. For example, murine Ba/F3 cells transfected with a suitable version of wild-type EGFR (such as VIII; containing a WT EGFR kinase domain), or Ba/F3 cells transfected with L858R/T790M, Del/T790M/L718Q, L858R/T790M/L718Q, L858R/T790M/C797S, Del/T790M/C797S, L858R/T790M/I941R, or Exon 19 deletion/T790M can be used.\nCell lines are plated in media. The compounds of the present disclosure are then serially diluted and transferred to the cells. Cell viability is measured via a luminescent readout. Data is analyzed by non-linear regression curve-fitting. […]\nThe EGFR mutant L858R, Del E746_A750, L858R/T790M, DelE746_A750/T790M, L858R/T790M/C797S and Del/T790M/C797S Ba/F3 cells have been previously described (Zhou, W., Ercan, D., Chen, L., Yun, C. H., Li, D., Capelletti, M., Cortot, A. B., Chirieac, L., Iacob, R. E., Padera, R., et al. “Novel mutant-selective EGFR kinase inhibitors against EGFR T790M,” Nature 462, (2009), 1070-1074). All cell lines were maintained in RPMI 1640 (Cellgro; Mediatech Inc., Herndon, Calif.) supplemented with 10% FBS 100 units/mL penicillin, 100 units/mL streptomycin, and 2 mM glutamine. L858R cells were maintained in ACL-4 media (Invitrogen, Carlsbad, Calif.) supplemented with 5% FBS, 100 units/mL penicillin, 100 units/mL streptomycin, and 2 mM glutamine. The EGFR I941R mutation was introduced via site directed mutagenesis using the Quick Change Site-Directed Mutagenesis kit (Stratagene; La Jolla, Calif.) according to the manufacturer's instructions. All constructs were confirmed by DNA sequencing. The constructs were shuttled into the retroviral vector JP 1540 using the BD Creator™ System (BD Biosciences). Ba/F3 cells were infected with retrovirus and according to standard protocols, as described previously (Zhou et al, Nature 2009). Stable clones were obtained by selection in puromycin (2 μg/ml).\nGrowth and inhibition of growth was assessed by MTS assay and was performed according to previously established methods (Zhou et al., Nature 2009). The MTS assay is a colorimetric method for determining the number of viable cells that is based on the bioreduction of MTS by cells to a formazan product that is soluble in cell culture medium and can be detected spectrophotometrically. Ba/F3 cells of different EGFR genotypes were exposed to treatment for 72 hours and the number of cells used per experiment determined empirically and has been previously established (Zhou et al., Nature 2009). All experimental points were set up in six wells and all experiments were repeated at least three times. […] The curves were fitted using a non-linear regression model with a sigmoidal dose response.\nInhibition data of an EGFR T790M/L858R Ba/F3 cell line."}
{"smiles": "O=C(Nc1ncccc1F)[C@@H](c1ccccc1)N1Cc2ccccc2C1=O", "note": "[Compound I-56, (R)-N-(3-fluoropyridin-2-yl)-2-(1-oxoisoindolin-2-yl)-2-phenylacetamide]", "Activity (% inhibition)": "B (a % inhibition of between about 50% to about 75%)"}
{"smiles": "O=C(Nc1ncccc1Cl)[C@@H](c1ccccc1)N1Cc2ccccc2C1=O", "note": "[Compound I-57, (R)-N-(3-chloropyridin-2-yl)-2-(1-oxoisoindolin-2-yl)-2-phenylacetamide]", "Activity (% inhibition)": "A (a % inhibition of about 75%)"}
{"smiles": "CN(C(=O)[C@@H](c1ccccc1)N1Cc2ccccc2C1=O)c1nccs1", "note": "[Compound I-58, (R)-N-methyl-2-(1-oxoisoindolin-2-yl)-2-phenyl-N-(thiazol-2-yl)acetamide]", "Activity (% inhibition)": "B (a % inhibition of between about 50% to about 75%)"}
{"smiles": "O=C(Nc1nccs1)[C@@H](c1ccccc1)N1Cc2ccc(-c3ccccc3)cc2C1=O", "note": "[Compound I-59, (R)-2-(1-oxo-6-phenylisoindolin-2-yl)-2-phenyl-N-(thiazol-2-yl)acetamide]", "Activity (% inhibition)": "C (a % inhibition of between about 25% to about 50%)"}
{"smiles": "O=C(Nc1nccs1)[C@@H](c1ccccc1)N1Cc2ccc(-c3cccnc3)cc2C1=O", "note": "[Compound I-60, (R)-2-(1-oxo-6-(pyridin-3-yl)isoindolin-2-yl)-2-phenyl-N-(thiazol-2-yl)acetamide]", "Activity (% inhibition)": "C (a % inhibition of between about 25% to about 50%)"}
{"smiles": "O=C(Nc1nccs1)[C@@H](c1ccccc1)N1Cc2ccc(-c3ccncc3)cc2C1=O", "note": "[Compound I-61, (R)-2-(1-oxo-6-(pyridin-4-yl)isoindolin-2-yl)-2-phenyl-N-(thiazol-2-yl)acetamide]", "Activity (% inhibition)": "C (a % inhibition of between about 25% to about 50%)"}
{"smiles": "O=C(Nc1nccs1)[C@@H](c1ccccc1)N1Cc2ccc(-c3cncnc3)cc2C1=O", "note": "[Compound I-62, (R)-2-(1-oxo-6-(pyrimidin-5-yl)isoindolin-2-yl)-2-phenyl-N-(thiazol-2-yl)acetamide]", "Activity (% inhibition)": "B (a % inhibition of between about 50% to about 75%)"}
{"smiles": "CCn1cc(-c2ccc3c(c2)C(=O)N([C@@H](C(=O)Nc2nccs2)c2ccccc2)C3)cn1", "note": "[Compound I-63, (R)-2-(6-(1-ethyl-1H-pyrazol-4-yl)-1-oxoisoindolin-2-yl)-2-phenyl-N-(thiazol-2-yl)acetamide]", "Activity (% inhibition)": "C (a % inhibition of between about 25% to about 50%)"}
{"smiles": "O=C(Nc1nccs1)[C@@H](c1ccccc1)N1Cc2ccc(-c3cn[nH]c3)cc2C1=O", "note": "[Compound I-64, (R)-2-(1-oxo-6-(1H-pyrazol-4-yl)isoindolin-2-yl)-2-phenyl-N-(thiazol-2-yl)acetamide]", "Activity (% inhibition)": "B (a % inhibition of between about 50% to about 75%)"}
{"smiles": "O=C(Nc1nccs1)[C@@H](c1ccccc1)N1Cc2ccc(-c3ccc4cc[nH]c4c3)cc2C1=O", "note": "[Compound I-67, (R)-2-(6-(1H-indol-6-yl)-1-oxoisoindolin-2-yl)-2-phenyl-N-(thiazol-2-yl)acetamide]", "Activity (% inhibition)": "C (a % inhibition of between about 25% to about 50%)"}
{"smiles": "O=C(Nc1nccs1)[C@@H](c1ccccc1)N1Cc2ccc(-c3cccc4cccnc34)cc2C1=O", "note": "[Compound I-71, (R)-2-(1-oxo-6-(quinolin-8-yl)isoindolin-2-yl)-2-phenyl-N-(thiazol-2-yl)acetamide]", "Activity (% inhibition)": "C (a % inhibition of between about 25% to about 50%)"}
{"smiles": "COC(=O)c1ccc(-c2ccc3c(c2)C(=O)N([C@@H](C(=O)Nc2nccs2)c2ccccc2)C3)cc1", "note": "[Compound I-72, methyl (R)-4-(3-oxo-2-(2-oxo-1-phenyl-2-(thiazol-2-ylamino)ethyl)isoindolin-5-yl)benzoate]", "Activity (% inhibition)": "B (a % inhibition of between about 50% to about 75%)"}
{"smiles": "Nc1cccc(-c2ccc3c(c2)C(=O)N([C@@H](C(=O)Nc2nccs2)c2ccccc2)C3)c1", "note": "[Compound I-73, (R)-2-(6-(3-aminophenyl)-1-oxoisoindolin-2-yl)-2-phenyl-N-(thiazol-2-yl)acetamide]", "Activity (% inhibition)": "C (a % inhibition of between about 25% to about 50%)"}
